Type in all cases: in vivo
The subject of test [1] is BALB/C mice. Put plainly: Porsolt Forced Swim test (two-day modification), mice. On the procedure: (§1) After an adaptation period, the test substance was intraperitoneally injected into mice. Behavioral parameters were measured in 30 minutes after injection. No more than one test was performed per day. The tests were administered as follows: day 1—the Open field test, day 8—the Elevated plus maze test, days 15-16—the Porsolt Forced Swim (two-day modification) test.
As part of this modification, two tests were carried out within two days. The installation is a transparent cylinder, 30 cm high, 10 cm in diameter and filled with water (water temperature 21° C.-23° C.) to a mark at a height of 25 cm. On the first day, each animal was dropped into the cylinder for 10 minutes. Behavioral parameters were not recorded. The animals are dropped into the cylinder for ten minutes again on the second day. The duration of active (vigorous movements with all paws) and passive (weak strokes with hind legs) swimming, as well as immobility (immobilization) (Porsolt et al. (1977). Behavioral despair in mice: a primary screening test for antidepressants. Arch Int Pharmacodyn Ther, 229(2), 327-336) are recorded. After each test the mice are placed in a heated cage until dry. The behavior indicators in this test are processed using the Real Timer Program developed by NPK “OpenScience” LLC, Russia. The sequence of events and their duration were recorded as well as basic statistical data processing was conducted.

For test [2], the system named is zebrafish (Danio rerio). Put plainly: Light/Dark Box (LDB) test. On the procedure:
(§2) The tested substances were injected into the zebrafish intraperitoneally using an insulin syringe (0.5 ml, 30 g) 10 minutes before the test (15 min before for ketamine only, according to the literature data). The saline solution (0.9% NaCl) was used as a solvent. Anesthesia and immobilization of the animals were achieved by placing them in water at a temperature of 10° C. Control group fish received intraperitoneal injections of an equivalent volume of solvent, also after going through a pre-cooling procedure.
The setup for the Light/Dark preference test consisted of three main parts: a launch compartment, a light compartment made of white plastic, and a dark compartment made of black plastic. The bright lighting in these tests was provided by a lamp on a stand (LED lamp PL, 11 W, light flux≈600 Lm, about 500 Lx directly above the water surface), which was attached to the upper part of the aquarium.
(§3) The light/dark box (LDB) test was performed as previously described (Maximino et al. (2011). Pharmacological analysis of zebrafish (Danio rerio) scototaxis. Prog. Neuro-Psychopharmacol. Biol. Psychiatry. 35(2): 624-631). The zebrafish was placed in a light compartment of an LDB using a net, the camera was switched on simultaneously, and the behavior of the zebrafish was recorded for 5 minutes. The video was processed using RealTimer (OpenScience). During the processing of records, the residence time and the number of visits to the light and dark compartments of the test setup were recorded, as well as the latent period of visiting both compartments.

Test [3] relates to zebrafish (Danio rerio). Description: Overall behavioral effect in zebrafish (NT and LDB tests). As for the experimental part: as §2
(§4) The Novel Tank (NT) test was performed as previously described (Maximino et al. (2013). Behavioral and neurochemical changes in the zebrafish leopard strain. G2B. 12(5): 576-582). A video recording (background shooting) was started 20-30 seconds before the zebrafish were placed in the test aquarium. The experimental zebrafish was placed in the tank using a net. The recording was being conducted for 5 minutes. The test was carried out using EthoVision XT software package (Noldus, Wageningen, Netherlands). The software registered the distance covered by the animal, its speed, the number of visits to the three conventional zones of the aquarium: “bottom,” “center,” and […] (lower, middle, and upper thirds of the aquarium, respectively), the time spent in these zones, and the latency of a visit to the middle and to the surface of the aquarium.
as §3

The subject of test [4] is zebrafish (Danio rerio). Put plainly: Novel Tank (NT) test. As for the experimental part: as §2
A base, back, and side walls of the aquarium were made of matte black plastic; the front panel (shorter wall) was made of transparent Plexiglas.
as §4

Test [5] deals with BALB/C mice. Put plainly: Open Field test, mice.
Text: Eighty male BALB/C mice were used as subjects in this example. Body weight of each specimen at the beginning of the experiment was between about 18 grams and about 20 grams. All animals were free from species-specific pathogens (specific pathogen free (SPF) status according to the Federation of European Laboratory Animal Science Associations (FELASA) list, 2014). The animals were kept in conditions of free access to water and food. The room was air-conditioned (exchange rate not less than 15 r/h) with a 12 h:12 h light-dark cycle (lights on at 09:00 am), air temperature 20-24°±2° C. (possible fluctuations of the limits no more than 2° C. per day), 30-70% humidity. For the study, the mice were separated into six different groups and the tested substances were administered to the groups as shown in Table 1. Drugs were daily prepared in fresh saline, according to the dosage. For intranasal administration (i.n.), a volume of 20 μl was used, for intraperitoneal (i.p.)—200 μl.
as §1
The test is an arena with a diameter of 63 cm, illuminated by bright light (500 Lx). Recorded parameters: total distance traveled (in cm), time spent moving (at a speed of more than five cm/s), time spent immobile (at a speed of less than 0.2 cm/s), average and maximum velocity, the number of episodes of motor activity and freezing. The same set of parameters, as well as the latent period and the time spent are recorded for the central sector. Defecation, rears (setting the animal on its hind legs) are evaluated visually. The test is designed to assess the level of motor and exploratory activity.

Test [6] has as its system BALB/C mice. Description: Elevated Plus Maze test, mice. Conditions: for behavior in EPM: 1 mg/kg i.p. As for the experimental part:
as §1
The test consists of two closed and two open arms located opposite each other (arm length 30 cm). The height of the sides of the closed arms is 15 cm. The entire installation is raised 70 cm above the floor. Open arms have a bright uniform illumination of 400 lux, closed −30-40 lux. The animal is placed in the center of the maze, with its head facing an open arm. Within five minutes, the Noldus EthoVision XT program (for behavior tracking) automatically records the following behavior parameters: total distance traveled (in cm), time spent moving (at a speed of more than five cm/s), time spent immobile (at a speed of less than 0.2 cm/s), average and maximum velocity, the number of episodes of mobility, and freezing. The same set of parameters, as well as the latent period and the time spent, are recorded for the central sector, the open and closed arms separately.

[7] abbreviates: 10 mg/kg i.p., 30 minutes after injection.

Take `COCCCC/C(=N\OCCN)c1ccc(C(F)(F)F)cc1` [FA, Fluvoxamine]: in test [1] (20 mg/kg i.p.), the “time of active swimming” value is 103.5 ± 15.1 s and the time spent immobile came to 229 ± 19.8 s.

`CNC1(c2ccccc2Cl)CCCCC1=O` (stereo not drawn) [ketamine, reference compound]: the “behavior in LDB test” value in test [2] (20 mg/kg i.p.) was “only trends towards significant differences”. Further, the “overall behavioral effect in Danio rerio” value in test [3] (20 mg/kg i.p.) is “anxiolytic-like responses”. Also, in test [4] (20 mg/kg i.p.), the distance travelled entry is “tendency towards increased distance travelled”, the “latency to the top of the NT” value is given as “did not alter”, the “time spent at the top of the tank” value is given as “significant increase” and the “time spent in the middle+top of the aquarium” value was “significant increase”. Moreover, the velocity result in test [4] (20 mg/kg i.p.) is given as “increased velocity”.

With “AGAS: tetrapeptide AGAS, best combinatorial tetrapeptide according to the score values”, the “behavior in LDB test” value in test [2] (1 mg/kg i.p.) was “didn't show any prominent effects”; in test [2] (5 mg/kg i.p.) it was “didn't show any prominent effects”; in test [2] (20 mg/kg i.p.) it was “no differences between experimental and control groups”. In addition, in test [2] (10 mg/kg i.p.), the “latency to enter the light compartment” value is on record as “decreased latency to enter the light compartment”. The “number of transitions between compartments of LDB” value in test [2] (10 mg/kg i.p.) was “increased number of transitions between compartments”. Moreover, the “behavior in FST” value in test [1] (10 mg/kg i.p.) is “did not affect the behavior”. For the same compound, the “overall behavioral effect in Danio rerio” value in test [3] (1 mg/kg i.p.) is recorded as “did not affect the behavior”; in test [3] (5 mg/kg i.p.) it was “did not affect the behavior”; in test [3] (10 mg/kg i.p.) it was “prominent anxiolytic-like activity”; in test [3] (20 mg/kg i.p.) it was “anxiogenic-like or sedative effect”. Further, the “behavior in NT test” value in test [4] (1 mg/kg i.p.) and in test [4] (5 mg/kg i.p.) was “didn't show any prominent effects” each time. Moreover, the figures for the velocity entry in test [4] (10 mg/kg i.p.) and in test [4] (20 mg/kg i.p.) were “greater velocity” and “trend towards significant reduction of velocity”, respectively. Further, in test [4] (20 mg/kg i.p.), the “time spent at the top of the tank” value was “decreased time spent at the top of the aquarium”. Further, the “number of center entries” value in test [5] (setting [7]) worked out at 19.3±3. The freezing time in test [6] (10 mg/kg i.p.) is 38.7 ± 9.6 s. Besides, the “number of rears on the closed arms” value in test [6] (10 mg/kg i.p.) was 10.2±2.9. The distance travelled in test [6] (setting [7]) is recorded as 973±78.7 cm.

Consider “AYFE: tetrapeptide chosen as a negative control [reference compound]”, for which the “behavior in LDB test” value is reported as “did not alter the behavior” in test [2] (1 mg/kg i.p.) and “did not differ from control values” in test [2] (10 mg/kg i.p.). Also, the “time spent active swimming” value in test [1] (1 mg/kg i.p.) is “increased”. Moreover, the time spent immobile entry in test [1] (1 mg/kg i.p.) is listed as “decreased”. The “overall behavioral effect in Danio rerio” value is given as “did not show behavioral effects” in test [3] (1 mg/kg i.p.) and “produced sedation” in test [3] (10 mg/kg i.p.). Further, in test [4] (1 mg/kg i.p.), the “behavior in NT test” value is reported as “did not alter the behavior”. Further, the “distance travelled (locomotor activity)” value in test [4] (10 mg/kg i.p.) was “attenuation of locomotor activity”. The “time spent in the center” value in test [5] (1 mg/kg i.p., 30 minutes after injection) is recorded as 59.96±22.4. Besides, in test [6], the “behavior in EPM” value was “didn't affect the behavior”.

For the compound “DSGH: combinatorial tetrapeptide with the best occurrence and the LOGO analysis”, the “number of transitions to light” value in test [2] (0.5 mg/kg i.p.) was “decreased number of transitions to light”. Moreover, the “time spent in the light compartment” value was “decreased time spent in the light compartment” in test [2] (0.5 mg/kg i.p., trend p<0.1) and “trend towards increased time spent in the light compartment” in test [2] (1 mg/kg i.p.). In addition, the “latency to enter the light” value in test [2] (1 mg/kg i.p., trend p<0.10) is on record as “decreased latency to enter the light”. In test [2] (10 mg/kg i.p.), the “behavior in LDB test” value is “did not affect the behavioral parameters”. Besides, in test [1] (1 mg/kg i.p.), the “behavioral parameters in FST” value was “did not cause any changes of the behavioral parameters”. Further, the “overall behavioral effect in Danio rerio” value is reported as “anxiogenic-like effect” in test [3] (0.5 mg/kg i.p.), “potent anxiolytic-like effect” in test [3] (1 mg/kg i.p.) and “failed to produce any behavioral changes” in test [3] (10 mg/kg i.p.). Moreover, the “behavior in NT test” value is listed as “did not produced any behavioral effects” in test [4] (0.5 mg/kg i.p.) and “did not affect the behavioral parameters” in test [4] (10 mg/kg i.p.). For the same compound, the “behavioral parameters in Open Field test” value in test [5] (1 mg/kg i.p.) was “did not cause any changes of the behavioral parameters”. Moreover, the “behavior in EPM” value in test [6] was “did not cause any changes of the behavioral parameters”.
